Test [1] has as its system CysLT1R. The test can be described thus: IC50 toward CysLT1R of the benzoxazine SAR series, quoted from the literature. The settings on record: CysLT1R over CysLT2R; SAR series of ref [30].
Test [2] relates to CysLT2R. The settings on record: Supplementary Table 3 ref ref.2; cited from earlier work.
The test system of test [3] is CysLT1R. Particulars: Supplementary Table 3 ref ref.2; cited from earlier work.
For test [4], the system named is CysLT2R. The test can be described thus: IC50 toward CysLT2R of the benzoxazine SAR series, quoted from the literature. Particulars: CysLT2R over CysLT1R; SAR series of ref [30].
Test [5] deals with CysLT1R wild type (Homo sapiens, UniProt Q9Y271). The test can be described thus: cell-based. The settings on record: HEK293, read-out: % IP1 production (normalized), single replicate values, log[Pranlukast] -11 M; CysLT1-wt.

Consider three compounds from PMC6897958, “Structural basis of ligand selectivity and disease mutations in cysteinyl leukotriene receptors” (Nature Communications, 2019).

Broadly, the IC50 is the concentration that gives 50% inhibition.

Some results are limits rather than exact numbers.

Sequence of CysLT1R wild type (Q9Y271 whole entry): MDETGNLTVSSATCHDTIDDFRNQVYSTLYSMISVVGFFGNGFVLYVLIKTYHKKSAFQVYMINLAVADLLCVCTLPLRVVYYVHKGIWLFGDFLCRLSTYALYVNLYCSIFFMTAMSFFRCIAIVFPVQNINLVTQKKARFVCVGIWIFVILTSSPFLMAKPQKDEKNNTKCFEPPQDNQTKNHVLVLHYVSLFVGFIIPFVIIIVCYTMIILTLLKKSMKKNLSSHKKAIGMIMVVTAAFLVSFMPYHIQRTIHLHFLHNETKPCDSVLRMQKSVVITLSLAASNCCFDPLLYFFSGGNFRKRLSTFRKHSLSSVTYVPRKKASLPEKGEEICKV

Regarding `O=C(O)CCC(=O)N1C[C@@H](C(=O)O)Oc2c(NC(=O)c3ccc(OCCCCc4ccccc4)cc3)cccc21` [cpd 13e], in test [1], the “selectivity for CysLT1R” value is listed as 1,800 fold. Moreover, the concentration for half-maximal inhibition (IC50) is 1800 nM in test [2] and < 1 nM in test [3].
For the compound `O=C(O)CCCN1C[C@@H](C(=O)O)Oc2c(NC(=O)c3ccc(OCCCCCc4ccccc4)cc3)cccc21` [cpd 15b], the “selectivity for CysLT2R” value in test [4] is listed as 200 fold. The values for the IC50 in test [2] and in test [3] were 0.62 nM and 120 nM, respectively.
Turning to `O=C(Nc1cccc2c(=O)cc(-c3nnn[nH]3)oc12)c1ccc(OCCCCc2ccccc2)cc1` [pranlukast], the remaining activity at 10 pM in test [5] was 94.3%.
